Test results from patent publication US20250197420A1, “MACROCYCLIC COMPOUNDS, COMPOSITIONS, AND METHODS OF USING THEREOF” (Sionna Therapeutics Inc., priority 2022, published 2025).

What was measured:
[1] = target: T1, Purified recombinant NBD1 (Homo sapiens, UniProt P13569); experiment: Aggregation analysis using differential static light scattering (DSLS): thermal stability of NBD1; format: binding; conditions: NBD1 0.2 mg/ml; Tagg of compound well minus average Tagg of DMSO control wells
T1 construct: Purified recombinant NBD1 was produced using previously described methods; made in house
Method in brief: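 Recombinant NBD1 at 0.2 mg/ml in Tris/NaCl/MgCl2 buffer with 2 mM ATP, 2 mM DTT, 1% glycerol, pH 7.6, was incubated with compound and heated at 1 °C/min to 70 °C while static light scattering was monitored. Tagg was taken from the curve inflection point and reported as ΔTagg relative to DMSO controls.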

[2] = system: Primary human bronchial epithelial cells from a ΔF508 homozygous CF donor (CF-HBE cells); experiment: TECC24 recording of CFTR-mediated transepithelial chloride transport, AUC fold over benchmark VX-809 @10 μM; format: cell-based; conditions: 48 hours incubation, AUC of forskolin-stimulated IEQ
Method in brief: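 CF-HBE cells on inserts were treated with compound for 48 h at 36.5 °C, then recorded in current-clamp with benzamil 10 μM, forskolin 10 μM, and finally CFTR inhibitor-172 20 μM in pH 7.4 Hepes saline. Equivalent Cl− current AUC between forskolin and inhibitor addition is expressed as a ratio to VX-809 AUC: A <3, B 3–6, C 6–20.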

T1 sequence (P13569 423-646 limits assumed): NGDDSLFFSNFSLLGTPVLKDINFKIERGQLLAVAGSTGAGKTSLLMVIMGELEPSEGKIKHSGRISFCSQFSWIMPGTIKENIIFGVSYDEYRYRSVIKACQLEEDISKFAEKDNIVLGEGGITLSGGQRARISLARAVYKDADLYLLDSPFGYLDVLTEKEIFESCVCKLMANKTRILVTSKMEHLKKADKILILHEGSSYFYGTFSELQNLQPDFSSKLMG

| Compound | DSLS (ΔTagg) [1] | TECC (test agent AUC divided by VX-809 AUC) [2] |
| --- | --- | --- |
| Cn1nc2nc1-c1cc(ccc1F)Oc1c(F)cc3[nH]ccc3c1COC(=O)NC(C)(C)COCCC2(C)c1cccc(CCC(=O)O)c1 (single isomer, unassigned) [Compound 100A, 3-[3-(23,29-difluoro-3,6,11,11-tetramethyl-13-oxo-9,14,25-trioxa-3,4,12,20,31-pentazapentacyclo-[24.3.1.12,5.016,24.017,21]hentriaconta-1(30),2(31),4,16,18,21,23,26,28-nonaen-6-yl)phenyl]propanoic acid] | C (a value greater than 10 °C and less than or equal to 25 °C is marked “C”) | C (a value between 6 and 20 is marked “C”) |
| CC1(c2cccc(CCC(=O)O)c2)CCCCCC(=O)CNC(=O)Cc2c(c(F)cc3[nH]ccc23)Oc2ccc(F)c(c2)-c2ncc1[nH]2 (stereo not drawn) [Compound 109, 3-[3-(24,30-Difluoro-6-methyl-12,15-dioxo-26-oxa-3,14,21,32-tetrazapentacyclo[25.3.1.12,5.017,25.018,22]dotriaconta-1(31),2,4,17,19,22,24,27,29-nonaen-6-yl)phenyl]propanoic acid] | C (a value greater than 10 °C and less than or equal to 25 °C is marked “C”) | B (a value between 3 and 6 is marked “B”) |
| CN1CCC(C)(C)CCC(c2cccc(CCC(=O)O)c2F)c2cnc([nH]2)-c2cc(ccc2F)Oc2c(F)cc3[nH]ccc3c2CCC1=O (stereo not drawn) [Compound 30, 3-[3-(23,29-Difluoro-9,9,12-trimethyl-13-oxo-25-oxa-3,12,20,31-tetrazapentacyclo[24.3.1.12,5.016,24.017,21]hentriaconta-1(30),2,4,16,18,21,23,26,28-nonaen-6-yl)-2-fluoro-phenyl]propanoic acid] | B (a value above 5 °C and less than or equal to 10 °C is marked “B”) | A (a TECC value less than 3 is marked “A”) |
| CN1CC(C)(C)CCCCC(C)(c2cccc(CCC(=O)O)c2)c2cnc([nH]2)-c2cc(ccc2F)Oc2c(F)cc3[nH]ccc3c2CCC1=O (stereo not drawn) [Compound 61, 3-[3-(24,30-Difluoro-6,11,11,13-tetramethyl-14-oxo-26-oxa-3,13,21,32-tetrazapentacyclo[25.3.1.12,5.017,25.018,22]dotriaconta-1(31),2,4,17,19,22,24,27,29-nonaen-6-yl)phenyl]propanoic acid] | C (a value greater than 10 °C and less than or equal to 25 °C is marked “C”) | B (a value between 3 and 6 is marked “B”) |
| CN1CC(C)(C)CCCC(c2ccccc2)n2ccc(n2)-c2cc(ccc2F)Oc2c(F)cc3[nH]ccc3c2CCC1=O (stereo not drawn) [Compound 39, 23,29-difluoro-10,10,12-trimethyl-6-phenyl-25-oxa-5,12,20,31-tetrazapentacyclo[24.3.1.12,5.016,24.017,21]hentriaconta-1(30),2(31),3,16,18,21,23,26,28-nonaen-13-one] | A (an ΔTagg value less than or equal to 5 °C is marked “A”) | A (a TECC value less than 3 is marked “A”) |
| [2H]C([2H])([2H])C1(c2cccc(CCC(=O)O)c2)CCCC(C)(C)CN(C)C(=O)CCc2c(c(F)cc3[nH]ccc23)Oc2ccc(F)c(c2)-c2ncc1[nH]2 (single isomer, unassigned) [Compound 66B] | C (a value greater than 10 °C and less than or equal to 25 °C is marked “C”) | A (a TECC value less than 3 is marked “A”) |
| CC1(c2cccc(CCC(=O)O)c2)CCCC2(CC2)CNC(=O)CCc2c(c(F)c(F)c3[nH]ccc23)Oc2ccc(F)c(c2)-c2ncc1[nH]2 (single isomer, unassigned) [Compound 69B, 3-[3-(22,23,29-trifluoro-6-methyl-13-oxo-spiro[25-oxa-3,12,20,31-tetrazapentacyclo-[24.3.1.12,5.016,24.017,21]hentriaconta-1(30),2,4,16,18,21,23,26,28-nonaene-10,1′-cyclopropane]-6-yl)phenyl]propanoic acid] | A (an ΔTagg value less than or equal to 5 °C is marked “A”) | B (a value between 3 and 6 is marked “B”) |
| COCCONC(=O)CCc1cccc(C2(C)CCCC(C)(C)CN(C)C(=O)CCc3c(c(F)cc4[nH]ccc34)Oc3ccc(F)c(c3)-c3ncc2[nH]3)c1 (single isomer, unassigned) [Compound 56, 3-[3-(23,29-difluoro-6,10,10,12-tetramethyl-13-oxo-25-oxa-3,12,20,31-tetrazapentacyclo[24.3.1.12,5.016,24.017,21]hentriaconta-1(30),2,4,16,18,21,23,26,28-nonaen-6-yl)phenyl]-N-(2-methoxyethoxy)propanamide] | A (an ΔTagg value less than or equal to 5 °C is marked “A”) | A (a TECC value less than 3 is marked “A”) |
| CC1(C)CCCC(C)(c2cccc(CCC(=O)O)c2)c2nnc([nH]2)-c2cc(ccc2F)Oc2c(F)cc3[nH]ccc3c2COC(=O)NC1 (stereo not drawn) [Compound 90, 3-[3-(23,29-Difluoro-6,10,10-trimethyl-13-oxo-14,25-dioxa-3,4,12,20,31-pentazapentacyclo[24.3.1.12,5.016,24.017,21]hentriaconta-1(30),2,4,16(24),17(21),18,22,26,28-nonaen-6-yl)phenyl]propanoic acid] | C (a value greater than 10 °C and less than or equal to 25 °C is marked “C”) | B (a value between 3 and 6 is marked “B”) |
| [2H]C([2H])([2H])C1(c2cccc(CCC(=O)O)c2)CCCC(C)(C)CN(C)C(=O)CCc2c(c(F)cc3[nH]ccc23)Oc2ccc(F)c(c2)-c2ncc1[nH]2 (single isomer, unassigned) [Compound 66A] | A (an ΔTagg value less than or equal to 5 °C is marked “A”) | A (a TECC value less than 3 is marked “A”) |
| CN1CC(C)(C)CCC(C)(c2cccc(CCC(=O)O)c2)c2cnc([nH]2)-c2cc(ccc2F)Oc2c(F)cc3[nH]ccc3c2CCC1=O (stereo not drawn) [Compound 33, 3-[3-(22,28-Difluoro-6,9,9,11-tetramethyl-12-oxo-24-oxa-3,11,19,30-tetrazapentacyclo[23.3.1.12,5.015,23.016,20]triaconta-1(29),2,4,15,17,20,22,25,27-nonaen-6-yl)phenyl]propanoic acid] | B (a value above 5 °C and less than or equal to 10 °C is marked “B”) | A (a TECC value less than 3 is marked “A”) |
| CC1(C)CCCCC(C)(c2cccc(CCC(=O)O)c2)c2cnc([nH]2)-c2cc(ccc2F)Oc2c(F)cc3[nH]ccc3c2CCC(=O)NC1 (single isomer, unassigned) [Compound 46A, 3-[3-(24,30-difluoro-6,11,11-trimethyl-14-oxo-26-oxa-3,13,21,32-tetrazapentacyclo[25.3.1.12,5.017,25.018,22]dotriaconta-1(30),2,4,17(25),18(22),19,23,27(31),28-nonaen-6-yl)phenyl]propanoic acid] | A (an ΔTagg value less than or equal to 5 °C is marked “A”) | A (a TECC value less than 3 is marked “A”) |
